Results on 20 compounds are retold here after patent US9187464B2, “TRPV4 antagonists” (GlaxoSmithKline Intellectual Property (No. 2) Limited, priority 2011, dated 2015).

In this test the target is T1, human TRPV4 (Homo sapiens, UniProt Q9HBA0).
T1 construct: expressed in transfected cells; host or cells: HEK-293-MSR-II cells transduced with 1% BacMam virus
Briefly: Ligand-gated assay (Fluo4 calcium, FLIPR; inhibition of agonist-induced activation). The format is cell-based. Conditions: HEK-293-MSR-II cells transduced with BacMam human TRPV4; agonist at EC80. In outline: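 Agonist (EC80) response read on FLIPR as Fluo-4 (2 uM) fluorescence after 10-min room-temperature compound exposure in HBSS/HEPES pH 7.4 with 0.01% Chaps. Cells: HEK-293-MSR-II expressing human TRPV4 via BacMam; output is IC50 of inhibition.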

Each structure is given as a SMILES string.

T1 sequence (Q9HBA0 whole entry): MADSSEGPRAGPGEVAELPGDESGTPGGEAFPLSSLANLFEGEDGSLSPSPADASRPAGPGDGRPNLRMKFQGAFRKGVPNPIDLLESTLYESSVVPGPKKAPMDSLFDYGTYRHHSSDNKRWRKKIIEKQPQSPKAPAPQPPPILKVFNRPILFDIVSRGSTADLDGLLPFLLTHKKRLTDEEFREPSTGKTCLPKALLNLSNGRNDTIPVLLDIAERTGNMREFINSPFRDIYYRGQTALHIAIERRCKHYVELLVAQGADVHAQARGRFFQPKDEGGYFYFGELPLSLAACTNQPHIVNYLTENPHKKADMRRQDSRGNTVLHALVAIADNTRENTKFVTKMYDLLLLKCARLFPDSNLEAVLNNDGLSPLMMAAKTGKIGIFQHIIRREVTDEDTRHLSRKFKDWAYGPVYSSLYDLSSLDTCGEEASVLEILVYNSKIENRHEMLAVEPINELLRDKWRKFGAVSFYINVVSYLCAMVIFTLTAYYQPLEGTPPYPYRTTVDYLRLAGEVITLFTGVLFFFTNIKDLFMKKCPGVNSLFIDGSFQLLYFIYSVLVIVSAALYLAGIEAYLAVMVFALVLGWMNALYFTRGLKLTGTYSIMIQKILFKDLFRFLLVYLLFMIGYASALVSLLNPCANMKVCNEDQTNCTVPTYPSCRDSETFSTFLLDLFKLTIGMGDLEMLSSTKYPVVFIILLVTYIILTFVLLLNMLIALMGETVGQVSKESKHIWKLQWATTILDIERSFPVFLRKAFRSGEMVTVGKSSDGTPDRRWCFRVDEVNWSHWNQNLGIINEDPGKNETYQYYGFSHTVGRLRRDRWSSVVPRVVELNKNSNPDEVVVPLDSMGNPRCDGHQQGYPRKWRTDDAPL

As for `CC(C)(C)n1cc(N2C[C@@]3(CCC[C@](C)(Cn4cnc5ccc(C#N)cc54)C3)OC2=O)cn1` [Example 43, 1-(((5S,7S)-3-(1-(tert-butyl)-1H-pyrazol-4-yl)-7-methyl-2-oxo-1-oxa-3-azaspiro[4.5]decan-7-yl)methyl)-1H-benzo[d]imidazole-6-carbonitrile], the IC50 lay in the range of 0.01 to 0.05 µM.
To `CC(C)(C)c1noc(N2C[C@@]3(CCC[C@](C)(Cn4cnc5ccc(C#N)cc54)C3)OC2=O)c1F` [Example 44, 1-(((5S,7S)-3-(3-(tert-butyl)-4-fluoroisoxazol-5-yl)-7-methyl-2-oxo-1-oxa-3-azaspiro[4.5]decan-7-yl)methyl)-1H-benzo[d]imidazole-6-carbonitrile] belongs 0.0001 to 0.01 µM.
With `CC(F)(F)c1cc(N2C[C@@]3(CCC[C@](C)(Cn4cnc5ccc(C#N)cc54)C3)OC2=O)on1` [Example 45, 1-(((5S,7S)-3-(3-(1,1-difluoroethyl)isoxazol-5-yl)-7-methyl-2-oxo-1-oxa-3-azaspiro[4.5]decan-7-yl)methyl)-1H-benzo[d]imidazole-6-carbonitrile], the IC50 lay in the range of 0.0001 to 0.01 µM.
As for `Cc1c(C(C)(C)C)noc1N1C[C@@]2(CCC[C@H](Cn3cnc4ccc(C#N)cc43)C2)OC1=O` [Example 46, 1-(((5S,7S)-3-(3-(tert-butyl)-4-methylisoxazol-5-yl)-2-oxo-1-oxa-3-azaspiro[4.5]decan-7-yl)methyl)-1H-benzo[d]imidazole-6-carbonitrile], the figure is 0.0001 to 0.01 µM; as for `CC(C)(C)c1noc(N2C[C@@]3(CCC[C@H](Cn4cnc5ccc(C#N)cc54)C3)OC2=O)c1F` [Example 47, 1-(((5S,7S)-3-(3-(tert-butyl)-4-fluoroisoxazol-5-yl)-2-oxo-1-oxa-3-azaspiro[4.5]decan-7-yl)methyl)-1H-benzo[d]imidazole-6-carbonitrile], 0.0001 to 0.01 µM.
On to `CC(C)(C)c1ccc(N2C[C@@]3(CCC[C@](C)(Cn4cnc5ccc(C#N)cc54)C3)OC2=O)nn1` [Example 48, 1-(((5S,7S)-3-(6-(tert-butyl)pyridazin-3-yl)-7-methyl-2-oxo-1-oxa-3-azaspiro[4.5]decan-7-yl)methyl)-1H-benzo[d]imidazole-6-carbonitrile], for which the 50% inhibitory concentration (IC50) was 0.0001 to 0.01 µM.
To `CC(C)(C)c1cnc(N2C[C@@]3(CCC[C@](C)(Cn4cnc5ccc(C#N)cc54)C3)OC2=O)nc1` [Example 49, 1-(((5S,7S)-3-(5-(tert-butyl)pyrimidin-2-yl)-7-methyl-2-oxo-1-oxa-3-azaspiro[4.5]decan-7-yl)methyl)-1H-benzo[d]imidazole-6-carbonitrile] belongs 0.0001 to 0.01 µM.
Turning to `CC(C)(C)n1ncc(N2C[C@@]3(CCC[C@](C)(Cn4cnc5ccc(C#N)cc54)C3)OC2=O)n1` [Example 50, 1-(((5S,7S)-3-(2-(tert-butyl)-2H-1,2,3-triazol-4-yl)-7-methyl-2-oxo-1-oxa-3-azaspiro[4.5]decan-7-yl)methyl)-1H-benzo[d]imidazole-6-carbonitrile], the IC50 lay in the range of 0.0001 to 0.01 µM.
As for `Cn1ccc(-c2cc(N3C[C@@]4(CCC[C@](C)(Cn5cnc6ccc(C#N)cc65)C4)OC3=O)on2)n1` [Example 51, 1-(((5S,7S)-7-methyl-3-(3-(1-methyl-1H-pyrazol-3-yl)isoxazol-5-yl)-2-oxo-1-oxa-3-azaspiro[4.5]decan-7-yl)methyl)-1H-benzo[d]imidazole-6-carbonitrile], the figure is 0.01 to 0.05 µM; as for `CC(C)(C)n1cc(N2C[C@@]3(CCC[C@](C)(Cn4cnc5ccc(C#N)cc54)C3)OC2=O)nn1` [Example 52, 1-(((5S,7S)-3-(1-(tert-butyl)-1H-1,2,3-triazol-4-yl)-7-methyl-2-oxo-1-oxa-3-azaspiro[4.5]decan-7-yl)methyl)-1H-benzo[d]imidazole-6-carbonitrile], 0.05 to 0.5 µM; as for `CC(C)(C)c1cnc(N2C[C@@]3(CCC[C@](C)(Cn4cnc5ccc(C#N)cc54)C3)OC2=O)cn1` [Example 53, 1-(((5S,7S)-3-(5-(tert-butyl)pyrazin-2-yl)-7-methyl-2-oxo-1-oxa-3-azaspiro[4.5]decan-7-yl)methyl)-1H-benzo[d]imidazole-6-carbonitrile], 0.0001 to 0.01 µM.
As for `C[C@]1(Cn2cnc3ccc(C#N)cc32)CCC[C@@]2(CN(c3ncc(C(F)(F)F)cn3)C(=O)O2)C1` [Example 54, 1-(((5S,7S)-7-methyl-2-oxo-3-(5-(trifluoromethyl)pyrimidin-2-yl)-1-oxa-3-azaspiro[4.5]decan-7-yl)methyl)-1H-benzo[d]imidazole-6-carbonitrile], the IC50 lay in the range of 0.05 to 0.5 µM.
Regarding `COC(C)(C)c1ccc(N2C[C@@]3(CCC[C@](C)(Cn4cnc5ccc(C#N)cc54)C3)OC2=O)cn1` [Example 55, 1-(((5S,7S)-3-(6-(2-methoxypropan-2-yl)pyridin-3-yl)-7-methyl-2-oxo-1-oxa-3-azaspiro[4.5]decan-7-yl)methyl)-1H-benzo[d]imidazole-6-carbonitrile], the IC50 was 0.0001 to 0.01 µM.
As for `C=C(C)c1cc(N2C[C@@]3(CCC[C@](C)(Cn4cnc5ccc(C#N)cc54)C3)OC2=O)on1` [Example 56, 1-(((5S,7S)-7-methyl-2-oxo-3-(3-(prop-1-en-2-yl)isoxazol-5-yl)-1-oxa-3-azaspiro[4.5]decan-7-yl)methyl)-1H-benzo[d]imidazole-6-carbonitrile], the figure is 0.01 to 0.05 µM; as for `Cc1noc(N2C[C@@]3(CCC[C@](C)(Cn4cnc5ccc(C#N)cc54)C3)OC2=O)c1C` [Example 57, 1-(((5S,7S)-3-(3,4-Dimethylisoxazol-5-yl)-7-methyl-2-oxo-1-oxa-3-azaspiro[4.5]decan-7-yl)methyl)-1H-benzo[d]imidazole-6-carbonitrile], 0.0001 to 0.01 µM; as for `Cc1noc(N2C[C@@]3(CCC[C@H](Cn4cnc5ccc(C#N)cc54)C3)OC2=O)c1C` [Example 58, 1-(((5S,7S)-3-(3,4-dimethylisoxazol-5-yl)-2-oxo-1-oxa-3-azaspiro[4.5]decan-7-yl)methyl)-1H-benzo[d]imidazole-6-carbonitrile], 0.05 to 0.5 µM.
To `N#Cc1ccc2ncn(C[C@H]3CCC[C@]4(C3)CN(Cc3csc(-c5ccccc5)n3)C(=O)O4)c2c1` [Example 63, 1-({(5S,7S)-2-oxo-3-[(2-phenyl-1,3-thiazol-4-yl)methyl]-1-oxa-3-azaspiro[4.5]dec-7-yl}methyl)-1H-benzimidazole-6-carbonitrile] belongs 0.01 to 0.05 µM; to `N#Cc1ccc2ncn(C[C@H]3CCC[C@]4(C3)CN(Cc3cccc(-c5ccccc5)n3)C(=O)O4)c2c1` [Example 64, 1-({(5S,7S)-2-oxo-3-[(6-phenyl-2-pyridinyl)methyl]-1-oxa-3-azaspiro[4.5]dec-7-yl}methyl)-1H-benzimidazole-6-carbonitrile], 0.0001 to 0.01 µM; to `CC(C)(CN1C[C@@]2(CCC[C@H](Cn3cnc4ccc(C#N)cc43)C2)OC1=O)c1nc(C2CCOCC2)no1` [Example 65, 1-[((5S,7S)-3-{2-methyl-2-[3-(tetrahydro-2H-pyran-4-yl)-1,2,4-oxadiazol-5-yl]propyl}-2-oxo-1-oxa-3-azaspiro[4.5]dec-7-yl)methyl]-1H-benzimidazole-6-carbonitrile], 0.01 to 0.05 µM.
With `N#Cc1ccc2ncn(C[C@H]3CCC[C@]4(C3)CN(Cc3nc(-c5ccccc5)cs3)C(=O)O4)c2c1` [Example 66, 1-({(5S,7S)-2-oxo-3-[(4-phenyl-1,3-thiazol-2-yl)methyl]-1-oxa-3-azaspiro[4.5]dec-7-yl}methyl)-1H-benzimidazole-6-carbonitrile], the IC50 was in the range of 0.01 to 0.05 µM.
